Earlier results on 2 compounds are cited in patent publication EP2338500A1, “Process for producing concentrated and refined actives from tissues and byproducts of Olea europaea with membrane technologies” (Phenofarm S.r.l., priority 2009, dated 2011).

This data set relates to murine leukemic cells P-388. Particulars: P-388 cells.

As for `C[C@@H]1O[C@@H](O[C@@H]2[C@@H](O)[C@H](OCCc3ccc(O)c(O)c3)O[C@H](COC(=O)/C=C/c3ccc(O)c(O)c3)[C@H]2O)[C@H](O)[C@H](O)[C@H]1O` [isoverbascoside], the “cytotoxic activity at a concentration ED50” value is 10 µg/mL.

Take `C[C@@H]1O[C@@H](O[C@@H]2[C@@H](O)[C@H](OCCc3ccc(O)c(O)c3)O[C@H](CO)[C@H]2OC(=O)/C=C/c2ccc(O)c(O)c2)[C@H](O)[C@H](O)[C@H]1O` [verbascoside]: the “cytotoxic activity at a concentration ED50” value is listed as 26 µg/mL.
